Measured values published in the supplement of paper PMC10307832.

Experiments:
Assay in all cases: relative viability (nuclei count vs DMSO), 5 days (fraction); higher = more cells survive
[1] = compound: COc1cccc2cc(-c3nc([C@H]4CC[C@H](C(=O)O)CC4)n4ncnc(N)c34)[nH]c12 [OSI-027] + Cc1nc(NC(=O)N2CCC[C@H]2C(N)=O)sc1-c1ccnc(C(C)(C)C(F)(F)F)c1 [Alpelisib] (partner 2 µM)
Outline: (§1)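 After 5 days of treatment, lung cancer cells in 1536-well plates were fixed and stained in a single step (final 0.05% Triton X-100, 1% formaldehyde, 1 ug/ml Hoechst) and their nuclei counted on 4× images. Treatment had been applied by pin tool the day after seeding as one drug alone or as a fixed anchor-drug dose with five library-drug doses (not always all listed) in √10 steps. Relative viability is the nuclei count of treated wells divided by that of vehicle wells, and values are medians of duplicate plates.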

[2] = compound: COc1cccc2cc(-c3nc([C@H]4CC[C@H](C(=O)O)CC4)n4ncnc(N)c34)[nH]c12 [OSI-027] + Cc1nc(Nc2ncc(C(=O)Nc3c(C)cccc3Cl)s2)cc(N2CCN(CCO)CC2)n1 [Dasatinib] (partner 0.075 µM)
Outline: as §1

[3] = compound: Cc1nc(NC(=O)N2CCC[C@H]2C(N)=O)sc1-c1ccnc(C(C)(C)C(F)(F)F)c1 [Alpelisib] + CCNC(=O)c1noc(-c2cc(C(C)C)c(O)cc2O)c1-c1ccc(CN2CCOCC2)cc1 [Luminespib] (partner 0.01 µM)
Outline: as §1

[4] = compound: COc1cccc2cc(-c3nc([C@H]4CC[C@H](C(=O)O)CC4)n4ncnc(N)c34)[nH]c12 [OSI-027] + CCNC(=O)c1noc(-c2cc(C(C)C)c(O)cc2O)c1-c1ccc(CN2CCOCC2)cc1 [Luminespib] (partner 0.01 µM)
Outline: as §1

In the case of Calu-6, the relative viability ([1]; first compound 0.01 µM) is reported as 0.917, the relative viability ([1]; first compound 0.03162 µM) is reported as 0.974 and the relative viability ([1]; first compound 0.1 µM) is reported as 0.75. The relative viability ([1]; first compound 0.3162 µM) was 0.697 and the relative viability ([1]; first compound 1 µM) was 0.42.
With ChaGo-K-1 the relative viability ([2]; first compound 0.01 µM) was 0.515, the relative viability ([2]; first compound 0.03162 µM) was 0.618 and the relative viability ([2]; first compound 0.1 µM) was 0.5. For the same cell line, the relative viability ([2]; first compound 0.3162 µM) was 0.549, the relative viability ([2]; first compound 1 µM) was 0.474 and the relative viability ([3]; first compound 0.04 µM) was 0.61. For the same cell line, the relative viability ([3]; first compound 0.1265 µM) was 0.488, the relative viability ([3]; first compound 0.4 µM) was 0.706 and the relative viability ([3]; first compound 1.265 µM) was 0.585. For the same cell line, the relative viability ([3]; first compound 4 µM) was 0.507, the relative viability ([4]; first compound 0.01 µM) was 0.574 and the relative viability ([4]; first compound 0.03162 µM) was 0.648. For the same cell line, the relative viability ([4]; first compound 0.1 µM) was 0.586, the relative viability ([4]; first compound 0.3162 µM) was 0.355 and the relative viability ([4]; first compound 1 µM) was 0.31.
EBC-1 was tested, and the relative viability ([1]; first compound 0.01 µM) was 0.79, the relative viability ([1]; first compound 0.03162 µM) was 0.909 and the relative viability ([1]; first compound 0.1 µM) was 0.823. For the same cell line, the relative viability ([1]; first compound 0.3162 µM) was 0.478 and the relative viability ([1]; first compound 1 µM) was 0.343.
Cell Line EKVX has a relative viability ([1]; first compound 0.01 µM) of 0.731, a relative viability ([1]; first compound 0.03162 µM) of 0.849 and a relative viability ([1]; first compound 0.1 µM) of 0.73. The relative viability ([1]; first compound 0.3162 µM) was 0.625, the relative viability ([1]; first compound 1 µM) was 0.351 and the relative viability ([2]; first compound 0.01 µM) was 0.516. It also gave a relative viability ([2]; first compound 0.03162 µM) of 0.472, a relative viability ([2]; first compound 0.1 µM) of 0.515 and a relative viability ([2]; first compound 0.3162 µM) of 0.429. The relative viability ([2]; first compound 1 µM) was 0.316, the relative viability ([3]; first compound 0.04 µM) was 0.877 and the relative viability ([3]; first compound 0.1265 µM) was 0.712. It also gave a relative viability ([3]; first compound 0.4 µM) of 0.961, a relative viability ([3]; first compound 1.265 µM) of 0.844 and a relative viability ([3]; first compound 4 µM) of 0.552. For the same cell line, the relative viability ([4]; first compound 0.01 µM) was 0.743, the relative viability ([4]; first compound 0.03162 µM) was 0.8 and the relative viability ([4]; first compound 0.1 µM) was 0.872. It also gave a relative viability ([4]; first compound 0.3162 µM) of 0.727 and a relative viability ([4]; first compound 1 µM) of 0.604.
EMC-BAC-2 showed a relative viability ([1]; first compound 0.01 µM) of 0.723, a relative viability ([1]; first compound 0.03162 µM) of 0.727 and a relative viability ([1]; first compound 0.1 µM) of 0.647. It also gave a relative viability ([1]; first compound 0.3162 µM) of 0.558, a relative viability ([1]; first compound 1 µM) of 0.309 and a relative viability ([2]; first compound 0.01 µM) of 0.296. It also gave a relative viability ([2]; first compound 0.03162 µM) of 0.311, a relative viability ([2]; first compound 0.1 µM) of 0.308 and a relative viability ([2]; first compound 0.3162 µM) of 0.249. For the same cell line, the relative viability ([2]; first compound 1 µM) was 0.225, the relative viability ([3]; first compound 0.04 µM) was 1.24 and the relative viability ([3]; first compound 0.1265 µM) was 1.03. It also gave a relative viability ([3]; first compound 0.4 µM) of 1.16, a relative viability ([3]; first compound 1.265 µM) of 0.932 and a relative viability ([3]; first compound 4 µM) of 0.707. The relative viability ([4]; first compound 0.01 µM) was 1.24, the relative viability ([4]; first compound 0.03162 µM) was 1.17 and the relative viability ([4]; first compound 0.1 µM) was 0.95. For the same cell line, the relative viability ([4]; first compound 0.3162 µM) was 0.864 and the relative viability ([4]; first compound 1 µM) was 0.379.
EPLC-272H showed a relative viability ([1]; first compound 0.01 µM) of 0.889, a relative viability ([1]; first compound 0.03162 µM) of 0.866 and a relative viability ([1]; first compound 0.1 µM) of 0.828. For the same cell line, the relative viability ([1]; first compound 0.3162 µM) was 0.619, the relative viability ([1]; first compound 1 µM) was 0.599 and the relative viability ([2]; first compound 0.01 µM) was 0.336. It also gave a relative viability ([2]; first compound 0.03162 µM) of 0.314, a relative viability ([2]; first compound 0.1 µM) of 0.36 and a relative viability ([2]; first compound 0.3162 µM) of 0.268. For the same cell line, the relative viability ([2]; first compound 1 µM) was 0.102, the relative viability ([3]; first compound 0.04 µM) was 0.74 and the relative viability ([3]; first compound 0.1265 µM) was 0.253. The relative viability ([3]; first compound 0.4 µM) was 0.155, the relative viability ([3]; first compound 1.265 µM) was 0.19 and the relative viability ([3]; first compound 4 µM) was 0.164. It also gave a relative viability ([4]; first compound 0.01 µM) of 0.38, a relative viability ([4]; first compound 0.03162 µM) of 0.267 and a relative viability ([4]; first compound 0.1 µM) of 0.147. It also gave a relative viability ([4]; first compound 0.3162 µM) of 0.2 and a relative viability ([4]; first compound 1 µM) of 0.228.
With H3255 the relative viability ([1]; first compound 0.01 µM) was 0.589, the relative viability ([1]; first compound 0.03162 µM) was 0.731 and the relative viability ([1]; first compound 0.1 µM) was 0.537. For the same cell line, the relative viability ([1]; first compound 0.3162 µM) was 0.503, the relative viability ([1]; first compound 1 µM) was 0.376 and the relative viability ([2]; first compound 0.01 µM) was 0.291. For the same cell line, the relative viability ([2]; first compound 0.03162 µM) was 0.377, the relative viability ([2]; first compound 0.1 µM) was 0.388 and the relative viability ([2]; first compound 0.3162 µM) was 0.292. The relative viability ([2]; first compound 1 µM) was 0.217, the relative viability ([3]; first compound 0.04 µM) was 0.896 and the relative viability ([3]; first compound 0.1265 µM) was 0.765. For the same cell line, the relative viability ([3]; first compound 0.4 µM) was 1.17, the relative viability ([3]; first compound 1.265 µM) was 0.733 and the relative viability ([3]; first compound 4 µM) was 0.625. The relative viability ([4]; first compound 0.01 µM) was 0.74, the relative viability ([4]; first compound 0.03162 µM) was 0.871 and the relative viability ([4]; first compound 0.1 µM) was 0.775. The relative viability ([4]; first compound 0.3162 µM) was 0.817 and the relative viability ([4]; first compound 1 µM) was 0.459.
HARA gave a relative viability ([1]; first compound 0.01 µM) of 0.81, a relative viability ([1]; first compound 0.03162 µM) of 0.655 and a relative viability ([1]; first compound 0.1 µM) of 0.785. The relative viability ([1]; first compound 0.3162 µM) was 0.495, the relative viability ([1]; first compound 1 µM) was 0.291 and the relative viability ([2]; first compound 0.01 µM) was 0.227. It also gave a relative viability ([2]; first compound 0.03162 µM) of 0.247, a relative viability ([2]; first compound 0.1 µM) of 0.25 and a relative viability ([2]; first compound 0.3162 µM) of 0.253. For the same cell line, the relative viability ([2]; first compound 1 µM) was 0.209, the relative viability ([3]; first compound 0.04 µM) was 0.406 and the relative viability ([3]; first compound 0.1265 µM) was 0.955. The relative viability ([3]; first compound 0.4 µM) was 0.896, the relative viability ([3]; first compound 1.265 µM) was 0.515 and the relative viability ([3]; first compound 4 µM) was 0.341. It also gave a relative viability ([4]; first compound 0.01 µM) of 0.683, a relative viability ([4]; first compound 0.03162 µM) of 0.839 and a relative viability ([4]; first compound 0.1 µM) of 0.706. The relative viability ([4]; first compound 0.3162 µM) was 0.449 and the relative viability ([4]; first compound 1 µM) was 0.22.
